{"source": "patent US7888464B2", "about": "“Hepatitis C virus inhibitors” (Bristol-Myers Squibb Company, priority 2006, dated 2011)", "molecular_target": "T1, HCV NS3/4A protease complex, H77 strain (1a genotype) (Hepatitis C virus genotype 1a, UniProt P27958, C1454S/C1711G)", "T1 construct": "DNA encoding the recombinant HCV NS3/4A protease complex (amino acids 1027 to 1711) for these strains; made in house; host or cells: Escherichia coli BL21 (DE3), pET21b", "T1 sequence (P27958 1027-1711 C1454S/C1711G, one chain of several)": "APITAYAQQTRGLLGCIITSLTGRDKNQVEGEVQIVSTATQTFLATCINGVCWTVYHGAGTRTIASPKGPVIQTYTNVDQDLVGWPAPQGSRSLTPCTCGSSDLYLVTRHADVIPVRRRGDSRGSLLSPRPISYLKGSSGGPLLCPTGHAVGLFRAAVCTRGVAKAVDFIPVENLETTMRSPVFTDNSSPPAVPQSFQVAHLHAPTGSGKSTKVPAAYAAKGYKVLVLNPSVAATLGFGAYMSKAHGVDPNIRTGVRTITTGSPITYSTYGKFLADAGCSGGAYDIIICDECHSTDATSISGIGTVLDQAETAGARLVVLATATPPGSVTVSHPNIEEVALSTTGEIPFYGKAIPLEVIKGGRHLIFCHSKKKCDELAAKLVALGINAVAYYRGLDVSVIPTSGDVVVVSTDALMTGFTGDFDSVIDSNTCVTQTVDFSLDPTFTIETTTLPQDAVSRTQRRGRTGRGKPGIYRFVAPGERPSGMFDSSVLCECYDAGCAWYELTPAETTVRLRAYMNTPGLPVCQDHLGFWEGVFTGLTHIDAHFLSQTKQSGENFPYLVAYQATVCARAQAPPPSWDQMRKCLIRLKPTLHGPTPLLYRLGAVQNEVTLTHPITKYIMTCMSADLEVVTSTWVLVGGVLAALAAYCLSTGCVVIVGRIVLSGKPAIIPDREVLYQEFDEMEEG", "assay": "FRET peptide assay to monitor HCV NS3/4A proteolytic activity (H77 strain)", "assay_type": "biochemical", "conditions": "read-out: IC50 against NS3/4A H77 strain", "text": "HCV NS3 protease complexes, derived from the BMS strain, H77 strain or J4L6S strain, were generated, as described below. These purified recombinant proteins were generated for use in a homogeneous assay (see below) to provide an indication of how effective compounds of the present disclosure would be in inhibiting HCV NS3 proteolytic activity.\nSerum from an HCV-infected patient was obtained from Dr. T. Wright, San Francisco Hospital. An engineered full-length cDNA (compliment deoxyribonucleic acid) template of the HCV genome (BMS strain) was constructed from DNA fragments obtained by reverse transcription-PCR(RT-PCR) of serum RNA (ribonucleic acid) and using primers selected on the basis of homology between other genotype la strains. From the determination of the entire genome sequence, a genotype la was assigned to the HCV isolate according to the classification of Simmonds et al. (See P Simmonds, K A Rose, S Graham, S W Chan, F McOmish, B C Dow, E A Follett, P L Yap and H Marsden, J. Clin. Microbiol., 31(6), 1493-1503 (1993)). […]", "data": [{"molecule": "C=C[C@@H]1C[C@]1(NC(=O)[C@@H]1C[C@@](O)(c2ccc(-c3ccccc3)cc2)CN1C(=O)[C@@H](NC(=O)OC(C)(C)C)C(C)(C)C)C(=O)NS(=O)(=O)C1CC1", "note": "[Compound 3]", "values": [{"measurement": "IC50", "result": 1.6, "unit": "nM"}]}]}
